Experiments:
[1] = molecular target: T1, human DNA topoisomerase I (Homo sapiens, UniProt P11387); test: DNA relaxation assay, agarose gel; type: biochemical
T1 sequence (P11387 2-765): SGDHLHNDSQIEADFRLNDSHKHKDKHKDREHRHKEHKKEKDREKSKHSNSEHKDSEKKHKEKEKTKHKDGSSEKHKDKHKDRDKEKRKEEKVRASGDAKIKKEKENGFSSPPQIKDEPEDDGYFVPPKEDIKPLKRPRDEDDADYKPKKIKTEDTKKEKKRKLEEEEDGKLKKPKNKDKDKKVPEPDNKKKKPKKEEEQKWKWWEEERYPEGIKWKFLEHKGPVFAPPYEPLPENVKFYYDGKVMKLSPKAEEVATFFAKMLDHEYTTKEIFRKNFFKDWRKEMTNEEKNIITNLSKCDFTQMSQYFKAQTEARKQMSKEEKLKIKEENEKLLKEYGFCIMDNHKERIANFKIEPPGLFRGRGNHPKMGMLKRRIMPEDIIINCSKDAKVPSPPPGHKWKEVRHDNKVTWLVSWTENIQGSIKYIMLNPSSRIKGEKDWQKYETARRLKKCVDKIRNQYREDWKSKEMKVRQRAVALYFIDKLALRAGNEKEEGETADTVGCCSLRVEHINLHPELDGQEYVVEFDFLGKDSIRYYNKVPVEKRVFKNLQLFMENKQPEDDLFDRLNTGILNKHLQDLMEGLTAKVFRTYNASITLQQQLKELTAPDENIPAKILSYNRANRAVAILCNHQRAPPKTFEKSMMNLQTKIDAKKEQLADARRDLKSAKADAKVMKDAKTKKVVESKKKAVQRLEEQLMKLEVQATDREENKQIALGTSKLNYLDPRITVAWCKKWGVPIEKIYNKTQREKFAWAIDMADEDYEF

[2] = molecular target: human DNA topoisomerase II alpha (Homo sapiens, UniProt P11388); test: DNA relaxation assay, agarose gel; type: biochemical
Sequence of human DNA topoisomerase II alpha (P11388 whole entry): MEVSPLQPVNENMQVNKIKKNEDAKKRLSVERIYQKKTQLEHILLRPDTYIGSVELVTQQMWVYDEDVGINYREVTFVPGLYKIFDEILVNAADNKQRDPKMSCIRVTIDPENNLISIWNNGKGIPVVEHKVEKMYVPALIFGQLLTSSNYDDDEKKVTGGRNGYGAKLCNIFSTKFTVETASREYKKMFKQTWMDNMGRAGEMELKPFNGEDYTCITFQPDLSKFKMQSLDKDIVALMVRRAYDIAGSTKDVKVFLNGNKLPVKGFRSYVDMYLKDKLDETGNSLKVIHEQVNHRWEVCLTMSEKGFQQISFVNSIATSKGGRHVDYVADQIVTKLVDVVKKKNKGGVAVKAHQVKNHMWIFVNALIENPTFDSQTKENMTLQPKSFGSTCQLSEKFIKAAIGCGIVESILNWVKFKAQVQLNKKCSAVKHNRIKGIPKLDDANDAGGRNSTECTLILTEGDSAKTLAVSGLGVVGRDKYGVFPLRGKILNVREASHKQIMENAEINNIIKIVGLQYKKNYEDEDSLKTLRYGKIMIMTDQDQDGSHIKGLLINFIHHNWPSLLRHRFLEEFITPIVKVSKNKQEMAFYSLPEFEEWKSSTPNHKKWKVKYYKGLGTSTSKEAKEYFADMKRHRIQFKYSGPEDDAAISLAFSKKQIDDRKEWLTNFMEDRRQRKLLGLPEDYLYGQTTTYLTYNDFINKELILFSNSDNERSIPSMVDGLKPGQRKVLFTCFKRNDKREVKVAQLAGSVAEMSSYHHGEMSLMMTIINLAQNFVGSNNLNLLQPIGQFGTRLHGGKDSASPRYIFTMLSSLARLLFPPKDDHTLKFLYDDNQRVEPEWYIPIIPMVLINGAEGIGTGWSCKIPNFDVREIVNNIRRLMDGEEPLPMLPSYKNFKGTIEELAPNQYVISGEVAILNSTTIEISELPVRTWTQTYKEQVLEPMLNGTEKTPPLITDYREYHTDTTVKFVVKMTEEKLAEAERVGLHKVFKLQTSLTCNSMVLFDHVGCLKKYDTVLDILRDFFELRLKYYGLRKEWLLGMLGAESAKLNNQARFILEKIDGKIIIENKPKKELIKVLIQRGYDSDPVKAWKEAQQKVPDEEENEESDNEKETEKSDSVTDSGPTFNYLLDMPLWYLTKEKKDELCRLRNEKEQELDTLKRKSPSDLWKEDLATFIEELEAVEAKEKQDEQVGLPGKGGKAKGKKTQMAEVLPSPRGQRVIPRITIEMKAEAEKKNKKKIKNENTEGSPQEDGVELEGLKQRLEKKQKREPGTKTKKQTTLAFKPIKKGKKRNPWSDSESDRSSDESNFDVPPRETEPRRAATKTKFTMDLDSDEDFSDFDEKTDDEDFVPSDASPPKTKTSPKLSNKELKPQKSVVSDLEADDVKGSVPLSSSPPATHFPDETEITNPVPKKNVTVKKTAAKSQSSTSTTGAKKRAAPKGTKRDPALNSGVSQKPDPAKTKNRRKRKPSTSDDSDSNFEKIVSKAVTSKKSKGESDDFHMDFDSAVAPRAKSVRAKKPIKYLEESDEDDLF

## CC[C@@]1(O)C(=O)OCc2c1cc1n(c2=O)Cc2cc3ccccc3nc2-1 [CPT, camptothecin]
[1]
  DNA relaxation assay, agarose gel (5 and 10 μM): CPT (a control for topoisomerase I inhibition) and DOX (a control for topoisomerase II inhibition) at two different concentrations

## COc1cccc2c1C(=O)c1c(O)c3c(c(O)c1C2=O)C[C@@](O)(C(=O)CO)C[C@@H]3O[C@H]1C[C@H](N)[C@H](O)[C@H](C)O1 [DOX, doxorubicin]
[2]
  DNA relaxation assay, agarose gel (5 and 10 μM): These showed no DNA migration, indicating complete inhibition of the respective topoisomerase enzymes.
